Biological target: BRD4 (Homo sapiens, UniProt O60885)
Assay: Time resolved fluorescence resonance energy transfer (TR-FRET) binding assay, bromodomain BRD4
Details: one of the FRET assays described; read-out: FRET BRD4 IC50

Row | Structure (SMILES) | IC50 [nM]
1 | Cc1nnn(C)c1-c1cnc2c3ccc(N4CCN(C(=O)N(C)C)CC4)nc3n([C@H](c3ccccc3F)C3CCOCC3)c2c1 [Example 268, 4-[5-(Dimethyl-1H-1,2,3-triazol-5-yl)-8-[(S)-(2-fluorophenyl)(oxan-4-yl)methyl]-3,8,10-triazatricyclo[7.4.0.0^2,^7]trideca-1(13),2(7),3,5,9,11-hexaen-11-yl]-N,N-dimethylpiperazine-1-carboxamide] | < 1
2 | CCOc1ncc(S(C)(=O)=O)c2c1c1ncc(-c3c(C)nnn3C)cc1n2[C@H](c1ccccc1)C1CCOCC1 [Example 53, 5-(Dimethyl-1H-1,2,3-triazol-5-yl)-13-ethoxy-10-methanesulfonyl-8-[(S)-oxan-4-yl(phenyl)methyl]-3,8,12-triazatricyclo[7.4.0.0^2,^7]trideca-1(13),2(7),3,5,9,11-hexaene] | < 1
3 | Cc1nnn(C)c1-c1cnc2c3ccnc(Cl)c3n([C@H](c3ccccc3F)C3CCOCC3)c2c1 [Example 5, 10-Chloro-5-(dimethyl-1H-1,2,3-triazol-5-yl)-8-[(S)-(2-fluorophenyl)(oxan-4-yl)methyl]-3,8,11-triazatricyclo[7.4.0.0^2,^7]trideca-1(13),2(7),3,5,9,11-hexaene] | < 10
4 | [2H]C([2H])([2H])c1nnn(C)c1-c1cnc2c3c(OC)nc(S(C)(=O)=O)cc3n([C@H](c3ccccc3)C3CCOCC3)c2c1 [Example 342, 11-Methanesulfonyl-13-methoxy-5-[4-(^2H3)methyl-1-methyl-1H-1,2,3-triazol-5-yl]-8-[(S)-oxan-4-yl(phenyl)methyl]-3,8,12-triazatricyclo[7.4.0.0^2,^7]trideca-1(13),2(7),3,5,9,11-hexaene] | < 10
5 | Cc1cccnc1C(C1CCOCC1)n1c2cc(-c3c(C)nnn3C)ncc2c2ncc(C(C)(C)O)cc21 (single isomer, unassigned) [Example 373] | < 1500
6 | Cc1nnn(C)c1-c1cnc2c3c(NS(=O)(=O)CC4CC4)ncc(S(C)(=O)=O)c3n([C@H](c3ccccc3)C3CCOCC3)c2c1 [Example 104, 1-Cyclopropyl-N-[5-(dimethyl-1H-1,2,3-triazol-5-yl)-10-methanesulfonyl-8-[(S)-oxan-4-yl(phenyl)methyl]-3,8,12-triazatricyclo[7.4.0.0^2,^7]trideca-1(13),2(7),3,5,9,11-hexaen-13-yl]methanesulfonamide] | < 10
7 | Cc1nnn(C)c1-c1cnc2c3cnc(C(C)(C)O)cc3n([C@H](c3ccc(F)cc3)C3CCOCC3)c2c1 [Example 336] | < 10
8 | [2H]C([2H])([2H])c1nnn(C)c1-c1cnc2c3c(OCC4CCCO4)ncc(S(C)(=O)=O)c3n([C@H](c3ccccc3)C3CCOCC3)c2c1 (stereo partly drawn) [Example 109, 10-Methanesulfonyl-5-[4-(^2H3)methyl-1-methyl-1H-1,2,3-triazol-5-yl]-8-[(S)-oxan-4-yl(phenyl)methyl]-13-[(2R)-oxolan-2-ylmethoxy]-3,8,12-triazatricyclo[7.4.0.0^2,^7]trideca-1(13),2(7),3,5,9,11-hexaene] | < 10
9 | Cc1nnn(C)c1-c1cnc2c3c(Cl)nc(C(C)(C)O)cc3n([C@H](c3ccccc3)C3CCOCC3)c2c1 [Example 294, 2-{13-chloro-5-[4-(^2H3)methyl-1-methyl-1H-1,2,3-triazol-5-yl]-8-[(S)-oxan-4-yl(phenyl)methyl]-3,8,12-triazatricyclo[7.4.0.0^2,^7]trideca-1(13),2(7),3,5,9,11-hexaen-11-yl}propan-2-ol] | < 10
10 | [2H]C([2H])([2H])C(=O)c1cc2c(cn1)c1ncc(-c3c(C)noc3C)cc1n2[C@H](c1ccc(F)cc1)C1CCOCC1 [Example 223, 1-[5-(Dimethyl-1,2-oxazol-4-yl)-8-[(S)-(4-fluorophenyl)(oxan-4-yl)methyl]-3,8,12-triazatricyclo[7.4.0.0^2,^7]trideca-1(13),2(7),3,5,9,11-hexaen-11-yl](^2H3)ethan-1-one] | < 10
11 | COC(=O)c1cnc(OC)c2c3ncc(-c4c(C)noc4C)cc3n([C@H](c3ccccc3)C3CCOCC3)c12 [Example 140, Methyl 5-(dimethyl-1,2-oxazol-4-yl)-13-methoxy-8-[(S)-oxan-4-yl(phenyl)methyl]-3,8,12-triazatricyclo[7.4.0.0^2,^7]trideca-1(13),2(7),3,5,9,11-hexaene-10-carboxylate] | < 1
12 | Cc1nnn(C)c1-c1cnc2c3ccc(S(=O)(=O)N4CCN(C)CC4)nc3n([C@H](c3ccccc3)C3CCOCC3)c2c1 [Example 198, 5-(Dimethyl-1H-1,2,3-triazol-5-yl)-11-[(4-methylpiperazin-1-yl)sulfonyl]-8-[(S)-oxan-4-yl(phenyl)methyl]-3,8,10-triazatricyclo[7.4.0.0^2,^7]trideca-1(9),2(7),3,5,10,12-hexaene] | < 10
13 | [2H]C([2H])([2H])c1nnn(C)c1-c1cnc2c3c(OCC4CC4(F)F)nccc3n([C@H](c3ccccc3)C3CCOCC3)c2c1 (stereo partly drawn) [Example 279, 13-[(2,2-Difluorocyclopropyl)methoxy]-5-[4-(^2H3)methyl-1-methyl-1H-1,2,3-triazol-5-yl]-8-[(S)-oxan-4-yl(phenyl)methyl]-3,8,12-triazatricyclo[7.4.0.0^2,^7]trideca-1(9),2(7),3,5,10,12-hexaene] | < 1
14 | [2H]C([2H])([2H])c1nnn(C)c1-c1cnc2c3c(OCC4CCCO4)ncc(S(C)(=O)=O)c3n([C@H](c3ccccc3)C3CCOCC3)c2c1 (stereo partly drawn) [Example 110, 10-Methanesulfonyl-5-[4-(^2H3)methyl-1-methyl-1H-1,2,3-triazol-5-yl]-8-[(S)-oxan-4-yl(phenyl)methyl]-13-[(2S)-oxolan-2-ylmethoxy]-3,8,12-triazatricyclo[7.4.0.0^2,^7]trideca-1(13),2(7),3,5,9,11-hexaene] | < 10
15 | [2H]C([2H])([2H])c1nnn(C)c1-c1cnc2c3c(N[C@H](C)C4CC4)ncc(S(C)(=O)=O)c3n([C@H](c3ccccc3)C3CCOCC3)c2c1 [Example 114, N-[(1R)-1-Cyclopropylethyl]-10-methanesulfonyl-5-[4-(^2H3)methyl-1-methyl-1H-1,2,3-triazol-5-yl]-8-[(S)-oxan-4-yl(phenyl)methyl]-3,8,12-triazatricyclo[7.4.0.0^2,^7]trideca-1(13),2(7),3,5,9,11-hexaen-13-amine] | < 10
16 | [2H]C([2H])([2H])c1nnn(C)c1-c1cnc2c3c(OC(C)C)ncc(S(C)(=O)=O)c3n([C@H](c3ccc(F)cc3)C3CCOCC3)c2c1 [Example 79, 8-[(S)-(4-Fluorophenyl)(oxan-4-yl)methyl]-10-methanesulfonyl-5-[4-(^2H3)methyl-1-methyl-1H-1,2,3-triazol-5-yl]-13-(propan-2-yloxy)-3,8,12-triazatricyclo[7.4.0.0^2,^7]trideca-1(13),2(7),3,5,9,11-hexaene] | < 1
17 | [2H]C([2H])([2H])c1nnn(C)c1-c1cnc2c3ccc(N4CCN(C)CC4)nc3n([C@H](c3ccccc3F)C3CCOCC3)c2c1 [Example 234, 8-[(S)-(2-Fluorophenyl)(oxan-4-yl)methyl]-5-[4-(^2H3)methyl-1-methyl-1H-1,2,3-triazol-5-yl]-11-(4-methylpiperazin-1-yl)-3,8,10-triazatricyclo[7.4.0.0^2,^7]trideca-1(13),2(7),3,5,9,11-hexaene] | < 10
18 | COc1nccc2c3ncc(-c4c(C)nnn4C)cc3n(C(c3cccc(F)c3)C3CCOCC3)c12 (single isomer, unassigned) [Example 21, 5-(Dimethyl-1H-1,2,3-triazol-5-yl)-8-[(3-fluorophenyl)(oxan-4-yl)methyl]-10-methoxy-3,8,11-triazatricyclo[7.4.0.0^2,^7]trideca-1(13),2(7),3,5,9,11-hexaene] | < 1500
19 | Cc1cnn(C)c1-c1ccc2c3ncc(-c4c(C)nnn4C)cc3n([C@H](c3ccccc3)C3CCOCC3)c2n1 [Example 148, 5-(Dimethyl-1H-1,2,3-triazol-5-yl)-11-(1,4-dimethyl-1H-pyrazol-5-yl)-8-[(S)-oxan-4-yl(phenyl)methyl]-3,8,10-triazatricyclo[7.4.0.0^2,^7]trideca-1(13),2(7),3,5,9,11-hexaene] | < 10
20 | COc1ncc(S(C)(=O)=O)c2c1c1ncc(-c3c(C)noc3C)cc1n2C(c1ccccc1)C1CCC(F)(F)CC1 (single isomer, unassigned) [Example 89, 8-[(4,4-Difluorocyclohexyl)(phenyl)methyl]-5-(dimethyl-1,2-oxazol-4-yl)-10-methanesulfonyl-13-methoxy-3,8,12-triazatricyclo[7.4.0.0^2,^7]trideca-1(13),2(7),3,5,9,11-hexaene] | < 1500
21 | [2H]C([2H])([2H])c1onc(C)c1-c1cnc2c3c(OC)ncc(S(=O)(=O)C([2H])([2H])[2H])c3n(C(c3ncccc3F)C3CCOCC3)c2c1 (stereo not drawn) [Example 66, 8-[(3-Fluoropyridin-2-yl)(oxan-4-yl)methyl]-10-(^2H3)methanesulfonyl-13-methoxy-5-[5-(^2H3)methyl-3-methyl-1,2-oxazol-4-yl]-3,8,12-triazatricyclo[7.4.0.0^2,^7]trideca-1(13),2(7),3,5,9,11-hexaene] | < 10
22 | [2H]C([2H])([2H])c1nnn(C)c1-c1cnc2c3ccc(N4CCN(C(C)C)CC4)nc3n([C@H](c3ccccc3)C3CCOCC3)c2c1 [Example 153, 5-[4-(^2H3)Methyl-1-methyl-1H-1,2,3-triazol-5-yl]-8-[(S)-oxan-4-yl(phenyl)methyl]-11-[4-(propan-2-yl)piperazin-1-yl]-3,8,10-triazatricyclo[7.4.0.0^2,^7]trideca-1(9),2(7),3,5,10,12-hexaene] | < 10
23 | COC(=O)c1cnc(OC)c2c3ncc(-c4c(C)nnn4C)cc3n([C@H](c3ccccc3)C3CCOCC3)c12 [Example 135, Methyl 5-(dimethyl-1H-1,2,3-triazol-5-yl)-13-methoxy-8-[(S)-oxan-4-yl(phenyl)methyl]-3,8,12-triazatricyclo[7.4.0.0^2,^7]trideca-1(9),2,4,6,10,12-hexaene-10-carboxylate] | < 1
24 | [2H]C([2H])([2H])c1nnn(C)c1-c1cnc2c3c(OC)ncc(S(C)(=O)=O)c3n(C(c3cccc(F)c3)C3CCOCC3)c2c1 (single isomer, unassigned) [Example 87, 8-[(3-Fluorophenyl)(oxan-4-yl)methyl]-10-methanesulfonyl-13-methoxy-5-[4-(^2H3)methyl-1-methyl-1H-1,2,3-triazol-5-yl]-3,8,12-triazatricyclo[7.4.0.0^2,^7]trideca-1(13),2(7),3,5,9,11-hexaene] | < 1500

Reference: US9725449B2, “Tricyclic compounds as anticancer agents” (BRISTOL-MYERS SQUIBB COMPANY, priority 2015, dated 2017)
